Laboratory results: patent publication US12077503B2, “Substituted cyclic amides and their use as herbicides” (FMC CORPORATION, priority 2015, dated 2024)

What was measured:
Assay type in all cases: in vivo
[1] = test system: giant foxtail (Setaria faberi); assay: Test G Post-Emergence Protocol; details: Setaria faberi, post-emergence, 312 h; for pest or weed control at 15.625 g/ha: 15.625 g ai/ha, evaluated after 13 days (100=total damage to plant; 0=no damage to plant), read-out: Foxtail, Giant damage rating; for pest or weed control at 62.5 g/ha: 62.5 g ai/ha, read-out: Foxtail, Giant damage rating (100=total damage to plant; 0=no damage to plant); for pest or weed control at 62.5 g/ha / pest or weed control at 250 g/ha: evaluated after 13 days; for pest or weed control at 250 g/ha: 250 g ai/ha, read-out: damage to plant, Foxtail, Giant (100=total damage to plant; 0=no damage to plant)
How it was run: (§1)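 Scores run 0 (no damage) to 100 (total damage) and were taken 13 days after spraying. Plants had been raised in pots for 8 days under glasshouse control (24/16 °C, 14 h photoperiod, 65% humidity) and then treated at 15.625, 62.5 or 250 g/ha.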

[2] = test system: ivy-leaved morning glory (Ipomoea hederacea); assay: Test G Post-Emergence Protocol; details: Ipomoea, post-emergence, 312 h; for pest or weed control at 15.625 g/ha: 15.625 g ai/ha, evaluated after 13 days (100=total damage to plant; 0=no damage to plant), read-out: Morningglory, Ivy-leaved damage rating; for pest or weed control at 62.5 g/ha: 62.5 g ai/ha, read-out: Morningglory, Ivy-leaved damage rating (100=total damage to plant; 0=no damage to plant); for pest or weed control at 62.5 g/ha / pest or weed control at 250 g/ha: evaluated after 13 days; for pest or weed control at 250 g/ha: 250 g ai/ha, read-out: damage to plant, Morningglory, Ivy-leaved (100=total damage to plant; 0=no damage to plant)
How it was run: as §1

[3] = test system: redroot pigweed (Amaranthus retroflexus); assay: Test G Post-Emergence Protocol; details: Amaranthus retroflexus, post-emergence, 312 h; for pest or weed control at 15.625 g/ha: 15.625 g ai/ha, evaluated after 13 days (100=total damage to plant; 0=no damage to plant), read-out: Pigweed, Redroot damage rating; for pest or weed control at 62.5 g/ha: 62.5 g ai/ha, read-out: Pigweed, Redroot damage rating (100=total damage to plant; 0=no damage to plant); for pest or weed control at 62.5 g/ha / pest or weed control at 250 g/ha: evaluated after 13 days; for pest or weed control at 250 g/ha: 250 g ai/ha, read-out: damage to plant, Pigweed, Redroot (100=total damage to plant; 0=no damage to plant)
How it was run: as §1

corn (Zea mays) [4] = assay: Test G Post-Emergence Protocol; details: Zea mays, post-emergence, 312 h; for plant injury at 15.625 g/ha: 15.625 g ai/ha, evaluated after 13 days (100=total damage to plant; 0=no damage to plant), read-out: Corn damage rating; for plant injury at 62.5 g/ha: 62.5 g ai/ha, read-out: Corn damage rating (100=total damage to plant; 0=no damage to plant); for plant injury at 62.5 g/ha / plant injury at 250 g/ha: evaluated after 13 days; for plant injury at 250 g/ha: 250 g ai/ha, read-out: damage to plant, Corn (100=total damage to plant; 0=no damage to plant)
How it was run: as §1

[5] = test system: barnyardgrass (Echinochloa crus-galli); assay: Test G Post-Emergence Protocol; details: Echinochloa crus-galli, post-emergence, 312 h; for pest or weed control at 15.625 g/ha: 15.625 g ai/ha, evaluated after 13 days (100=total damage to plant; 0=no damage to plant), read-out: Barnyardgrass damage rating; for pest or weed control at 62.5 g/ha: 62.5 g ai/ha, read-out: Barnyardgrass damage rating (100=total damage to plant; 0=no damage to plant); for pest or weed control at 62.5 g/ha / pest or weed control at 250 g/ha: evaluated after 13 days; for pest or weed control at 250 g/ha: 250 g ai/ha, read-out: damage to plant, Barnyardgrass (100=total damage to plant; 0=no damage to plant)
How it was run: as §1

[6] = test system: velvetleaf (Abutilon theophrasti); assay: Test G Post-Emergence Protocol; details: Abutilon theophrasti, post-emergence, 312 h; for pest or weed control at 15.625 g/ha: 15.625 g ai/ha, evaluated after 13 days (100=total damage to plant; 0=no damage to plant), read-out: Velvetleaf damage rating; for pest or weed control at 62.5 g/ha: 62.5 g ai/ha, read-out: Velvetleaf damage rating (100=total damage to plant; 0=no damage to plant); for pest or weed control at 62.5 g/ha / pest or weed control at 250 g/ha: evaluated after 13 days; for pest or weed control at 250 g/ha: 250 g ai/ha, read-out: damage to plant, Velvetleaf (100=total damage to plant; 0=no damage to plant)
How it was run: as §1

[7] = test system: giant foxtail (Setaria faberi); assay: Test G Pre-Emergence Protocol; details: Setaria faberi, pre-emergence, 312 h, evaluated after 13 days; for pest or weed control at 15.625 g/ha: 15.625 g ai/ha; for pest or weed control at 15.625 g/ha / pest or weed control at 250 g/ha: read-out: Foxtail, Giant damage rating (100=total damage to plant; 0=no damage to plant); for pest or weed control at 62.5 g/ha: 62.5 g ai/ha, 100=total damage to plant, 0=no damage to plant, read-out: plant damage rating, Foxtail, Giant; for pest or weed control at 250 g/ha: 250 g ai/ha
How it was run: (§2)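 Spraying took place one day after sowing, at 15.625, 62.5 or 250 g/ha, using an acetone/water (50:50) spray solution containing 0.5% Tween 20. Plants were kept under glasshouse conditions (24/16 °C, 14 h light, 65% humidity, watered twice daily), and injury was rated 0–100 at day 13.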

[8] = test system: ivy-leaved morning glory (Ipomoea hederacea); assay: Test G Pre-Emergence Protocol; details: Ipomoea, pre-emergence, 312 h, evaluated after 13 days; for pest or weed control at 15.625 g/ha: 15.625 g ai/ha, read-out: Morning-glory, Ivy-leaved damage rating (100=total damage to plant; 0=no damage to plant); for pest or weed control at 62.5 g/ha: 62.5 g ai/ha, 100=total damage to plant, 0=no damage to plant, read-out: plant damage rating, Morningglory, Ivy-leaved; for pest or weed control at 250 g/ha: 250 g ai/ha, read-out: Morningglory, Ivy-leaved damage rating (100=total damage to plant; 0=no damage to plant)
How it was run: as §2

[9] = test system: redroot pigweed (Amaranthus retroflexus); assay: Test G Pre-Emergence Protocol; details: Amaranthus retroflexus, pre-emergence, 312 h, evaluated after 13 days; for pest or weed control at 15.625 g/ha: 15.625 g ai/ha; for pest or weed control at 15.625 g/ha / pest or weed control at 250 g/ha: read-out: Pigweed, Redroot damage rating (100=total damage to plant; 0=no damage to plant); for pest or weed control at 62.5 g/ha: 62.5 g ai/ha, 100=total damage to plant, 0=no damage to plant, read-out: plant damage rating, Pigweed, Redroot; for pest or weed control at 250 g/ha: 250 g ai/ha
How it was run: as §2

corn (Zea mays) [10] = assay: Test G Pre-Emergence Protocol; details: Zea mays, pre-emergence, 312 h, evaluated after 13 days; for plant injury at 15.625 g/ha: 15.625 g ai/ha; for plant injury at 15.625 g/ha / plant injury at 250 g/ha: read-out: Corn damage rating (100=total damage to plant; 0=no damage to plant); for plant injury at 62.5 g/ha: 62.5 g ai/ha, 100=total damage to plant, 0=no damage to plant, read-out: plant damage rating, Corn; for plant injury at 250 g/ha: 250 g ai/ha
How it was run: as §2

[11] = test system: barnyardgrass (Echinochloa crus-galli); assay: Test G Pre-Emergence Protocol; details: Echinochloa crus-galli, pre-emergence, 312 h, evaluated after 13 days; for pest or weed control at 15.625 g/ha: 15.625 g ai/ha, read-out: Barnyard grass damage rating (100=total damage to plant; 0=no damage to plant); for pest or weed control at 62.5 g/ha: 62.5 g ai/ha, 100=total damage to plant, 0=no damage to plant, read-out: plant damage rating, Barnyardgrass; for pest or weed control at 250 g/ha: 250 g ai/ha, read-out: Barnyardgrass damage rating (100=total damage to plant; 0=no damage to plant)
How it was run: as §2

[12] = test system: velvetleaf (Abutilon theophrasti); assay: Test G Pre-Emergence Protocol; details: Abutilon theophrasti, pre-emergence, 312 h, evaluated after 13 days; for pest or weed control at 15.625 g/ha: 15.625 g ai/ha; for pest or weed control at 15.625 g/ha / pest or weed control at 250 g/ha: read-out: Velvetleaf damage rating (100=total damage to plant; 0=no damage to plant); for pest or weed control at 62.5 g/ha: 62.5 g ai/ha, 100=total damage to plant, 0=no damage to plant, read-out: plant damage rating, Velvetleaf; for pest or weed control at 250 g/ha: 250 g ai/ha
How it was run: as §2

SMILES | pest or weed control at 15.625 g/ha [1] | pest or weed control at 62.5 g/ha [1] | pest or weed control at 250 g/ha [1] | pest or weed control at 15.625 g/ha [2] | pest or weed control at 62.5 g/ha [2] | pest or weed control at 250 g/ha [2] | pest or weed control at 15.625 g/ha [3] | pest or weed control at 62.5 g/ha [3] | pest or weed control at 250 g/ha [3] | plant injury at 15.625 g/ha (corn (Zea mays) [4]) | plant injury at 62.5 g/ha (corn (Zea mays) [4]) | plant injury at 250 g/ha (corn (Zea mays) [4]) | pest or weed control at 15.625 g/ha [5] | pest or weed control at 62.5 g/ha [5] | pest or weed control at 250 g/ha [5] | pest or weed control at 15.625 g/ha [6] | pest or weed control at 62.5 g/ha [6] | pest or weed control at 250 g/ha [6] | pest or weed control at 15.625 g/ha [7] | pest or weed control at 62.5 g/ha [7] | also measured
CN1C[C@@H](c2ccc(C(F)(F)F)cc2)[C@H](C(=O)Nc2cccc(F)c2C(F)(F)F)C1=O (racemic) [Compound 1609] | 70% | 80% | 80% | 20% | 20% | 70% | 30% | 70% | 70% | 10% | 10% | 60% | 20% | 70% | 70% | 0% | 20% | 50% | 70% | 80% | pest or weed control at 250 g/ha [7]: 80%; pest or weed control at 15.625 g/ha [8]: 10%; pest or weed control at 62.5 g/ha [8]: 20%; pest or weed control at 250 g/ha [8]: 70%; pest or weed control at 15.625 g/ha [9]: 20%; pest or weed control at 62.5 g/ha [9]: 40%; pest or weed control at 250 g/ha [9]: 70%; plant injury at 15.625 g/ha (corn (Zea mays) [10]): 0%; plant injury at 62.5 g/ha (corn (Zea mays) [10]): 10%; plant injury at 250 g/ha (corn (Zea mays) [10]): 40%; pest or weed control at 15.625 g/ha [11]: 20%; pest or weed control at 62.5 g/ha [11]: 50%; pest or weed control at 250 g/ha [11]: 80%; pest or weed control at 15.625 g/ha [12]: 10%; pest or weed control at 62.5 g/ha [12]: 10%; pest or weed control at 250 g/ha [12]: 30%
CN1C[C@@H](c2ccc(C(F)(F)F)cc2)[C@H](C(=O)Nc2nn[nH]n2)C1=O (racemic) [Compound 1612] | 0% | 0% | 0% | 0% | 0% | 0% | 0% | 0% | 0% | 0% | 0% | 0% | 0% | 0% | 0% | 0% | 0% | 0% | 0% | 0% | pest or weed control at 250 g/ha [7]: 0%; pest or weed control at 15.625 g/ha [8]: 0%; pest or weed control at 62.5 g/ha [8]: 0%; pest or weed control at 250 g/ha [8]: 0%; pest or weed control at 15.625 g/ha [9]: 0%; pest or weed control at 62.5 g/ha [9]: 0%; pest or weed control at 250 g/ha [9]: 0%; plant injury at 15.625 g/ha (corn (Zea mays) [10]): 0%; plant injury at 62.5 g/ha (corn (Zea mays) [10]): 0%; plant injury at 250 g/ha (corn (Zea mays) [10]): 0%; pest or weed control at 15.625 g/ha [11]: 0%; pest or weed control at 62.5 g/ha [11]: 0%; pest or weed control at 250 g/ha [11]: 0%; pest or weed control at 15.625 g/ha [12]: 0%; pest or weed control at 62.5 g/ha [12]: 0%; pest or weed control at 250 g/ha [12]: 0%
